Assays:
[1] = Encapsulation efficiency of thin-shell polymeric nanoparticles; type: physicochemical; conditions: for encapsulation efficiency: cargo in thin-shell hollow PLGA nanoparticles
B16-OVA tumors [2] = experiment: Tumor treatment efficacy of adjuvant plus cisplatin, B16-OVA subcutaneous model; type: in vivo, B6 mice; conditions: intra-tumoral treatment
Experimental: To study the in vivo efficiency of the treatment modality, B6 mice were inoculated subcutaneously with B16-OVA tumors. When the tumors appeared palpable, they were pre-treated with free cGAMP or cGAMP-loaded nanoparticles prior to chemotherapy by cisplatin (CTTP). 24 hours following intra-tumoral adjuvant administration, the mice were given an intra-tumoral cisplatin injection to induce cell death (FIG. 9(a)). These two groups are designated cGAMP+CTTP and NP+CTTP to differentiate the use of free cGAMP and cGAMP-loaded nanoparticles, respectively. For controls, tumor-bearing mice receiving no treatment (placebo), cistplatin only (CTTP only) and cGAMP-loaded nanoparticles only (NP only) were also prepared. For cGAMP administration, 2.5 μg of the adjuvant was administered in 50 μL of solution. For cisplatin administration, 235 μg of the chemodrug was administered in 100 μL of solution. Following the different treatments, the tumor volumes were monitored over time. […] In contrast, no other group had any tumor with complete regression (FIG. 9(b), (c)). […] With the tumor-free surviving mice from the NP+CTTP group, 4 of them were re-challenged with B16-OVA cells on day 60 and compared to animals that had no prior tumor challenge and treatment.

[3] = In vivo immune potentiation after footpad injection (lymph node IFN-β, serum TNF-α); conditions: after footpad administration, mice
Experimental: Immune potentiation by the cd-GMP nanoparticles was further compared to free cd-GMP in vivo in mice. 48 hours following footpad injections, the draining popliteal lymph nodes were collected for IFN-β quantification. […] In addition, the systemic level of TNF-α, an indicator of reactogenicity, was also monitored following the footpad administration of free cd-GMP and cd-GMP nanoparticles.

B16-OVA tumors [4] = experiment: Adjuvant retention in tumors and cancer cells after intratumoral injection; type: in vivo, B6 mice; conditions: intra-tumoral, 24 hours
Experimental: To validate cell-associating effect of the nanoparticle adjuvant formulation, B6 mice were inoculated subcutaneously with B16-OVA tumors. Nanoparticle-mediated adjuvant retention with the B16 cells was validated using whole body imaging, flow cytometric analysis, and fluorescence microscopy. Dye-labelled STING agonist (2′-[DY-547]-AHC-c-diGMP) was administered in its free form and nanoparticle form intra-tumorally and examined after 24 hours.

HeLa cells = experiment: Association of cGAMP adjuvant with HeLa cells and cisplatin-induced debris (confocal, FACS); type: cell-based

dye-labelled BSA: dye-labelled bovine serum albumin cargo
encapsulation efficiency [1]: 35%

N.N.[Cl][Pt][Cl] [CTTP only, cisplatin]
tumor regression (B16-OVA tumors [2]): neither CTTP only nor NP only treatment induced tumor regression

Nc1nc2c(ncn2[C@@H]2O[C@@H]3COP(=O)(O)O[C@H]4[C@@H](O)[C@H](n5cnc6c(=O)[nH]c(N)nc65)O[C@@H]4COP(=O)(O)O[C@H]3[C@H]2O)c(=O)[nH]1 [cyclic di-GMP]
encapsulation efficiency [1]: 37%
encapsulation efficiency ([1]; listed as cd-GMP): about 40%
cargo molecules per nanoparticle ([1]; loading concentration 8 mM DNA, 50 mg/mL BSA, cd-GMP at about 40% efficiency): approximately 2,000
serum level of TNF-α (indicator of reactogenicity) [3]: elevated level

2′-[DY-547]-AHC-c-diGMP [free adjuvant]
adjuvant association within the cancer cells (B16-OVA tumors [4]; flow cytometry and confocal microscopy of extracted cells): little adjuvant retention
adjuvant retention inside the tumor (B16-OVA tumors [4]; whole body imaging): little adjuvant retention

Nc1nc2c(ncn2[C@@H]2O[C@@H]3COP(=O)(O)O[C@H]4[C@@H](O)[C@H](n5cnc6c(N)ncnc65)O[C@@H]4COP(=O)(O)O[C@@H]2[C@@H]3O)c(=O)[nH]1 [free cGAMP, 2′3′-cGAMP]
capacity to associate with the cells (HeLa cells): little capacity

Source: patent US11813326B2, “Cell-associating immunologic adjuvants for treatment enhancement” (ACADEMIA SINICA, priority 2018, dated 2023)
